Laboratory results: article PMC9838390, “Discovery and biosynthesis of karnamicins as angiotensin converting enzyme inhibitors” (Nature Communications, 2023)

Assay: Stability in enzyme reaction buffer
Type: physicochemical
Settings: reaction buffer (50 mM Tris-HCl, pH 7.5, 30 °C)
Method: To further examine the catalytic role of methyltransferase KnmF and monooxygenases KnmB1 and KnmB2 during the karnamicin assembly process, we decided to characterize their enzyme activities in vitro. For KnmF, we synthesized 28 (Fig. 3, Supplementary Figs. 111–116, and Supplementary Table 19), a putative dedicated substrate of KnmF with a trihydroxypyridine core. Subsequently, a time course analysis of the enzyme-catalyzed reaction was performed with KnmF expressed by Escherichia coli BL21 (DE3) cells (Supplementary Fig. 117) and 28. Intriguingly, immediately following the consumption of 28, a compound 30 appeared. The subsequent decrease in abundance of 30 was accompanied by the accumulation of karnamicin E1 (1) (Fig. 4a). […]
The reaction of KnmF was carried out at 30 °C in a 100 µL system containing 50 mM Tris-HCl buffer (pH 7.5), 1 mM compound 28, 2 mM SAM, and 2 μM KnmF. […] After centrifugation (10 min at 13,523×g), the supernatant was analyzed by HPLC-DAD with solvent gradient as follows: T = 0 min, 55% B; T = 13.5 min, 55% B; T = 19 min, 65% B; T = 35 min, 65% B; T = 40 min, 100% B; T = 45 min, 100% B; T = 45.1 min, 55% B; T = 51 min, 55% B (A, H2O + 0.1% CH3COOH, v/v; B, MeCN), and the column temperature was 25 °C (Analytical method B).

For `CC(C)CCCCc1nc(-c2nc(C(N)=O)c(O)c(O)c2O)cs1` [Compound 28], the “stability in the reaction buffer” value was “degraded rapidly”.
